The record followed here is US20240173307A1, “MODULATORS OF THE INTEGRATED STRESS PATHWAY” (Calico Life Sciences LLC, priority 2017, published 2024).

Where only a bound is given, the exact number is not on record here.

The subject of this experiment is HEK293T cells carrying the ATF4 luciferase reporter. Kind of experiment: ATF4-Luc assay (in vitro model of vanishing white matter disease). Format: cell-based. To be noted: Homo sapiens, HEK-293T, 1 μg/mL tunicamycin, 7 hours. The protocol: In order to test exemplary compounds of the invention in a cellular context, a stable VWMD cell line was first constructed. The ATF4 reporter was prepared by fusing the human full-length ATF4 5′-UTR (NCBI Accession No. BCO22088.2) in front of the firefly luciferase (FLuc) coding sequence lacking the initiator methionine as described in Sidrauski et al (eLife 2013). The construct was used to produce recombinant retroviruses using standard methods and the resulting viral supernatant was used to transduce HEK293T cells, which were then subsequently selected with puromycin to generate a stable cell line.
HEK293T cells carrying the ATF4 luciferase reporter were plated on polylysine coated 384-well plates (Greiner Bio-one) at 30,000 cells per well. Cells were treated the next day with 1 μg/mL tunicamycin and 200 nM of a compound of Formula (I) for 7 hours. Luminescence was measured using One Glo (Promega) as specified by the manufacturer. Cells were maintained in DMEM with L-glutamine supplemented with 10% heat-inactivated FBS (Gibco) and Antibiotic-Antimycotic solution (Gibco).
Table 2 below summarizes the EC50 data obtained using the ATF4-Luc assay for exemplary compounds of the invention.
Take `O=C(COc1ccc(Cl)c(F)c1)NC12CCC(C(=O)NCC(=O)c3ccc(Cl)cc3)(CC1)[C@H](O)C2` [Compound 276, (2R)-4-[2-(4-chloro-3-fluorophenoxy)acetamido]-N-[2-(4-chlorophenyl)-2-oxoethyl]-2-hydroxybicyclo[2.2.2]octane-1-carboxamide]: the EC50 was < 0.25 µM. As to `O=C(COc1ccc(Cl)c(F)c1)NC12CC(C(=O)Nc3ccc(OC(F)F)nc3)(C1)C2` [Compound 282, 3-[2-(4-chloro-3-fluorophenoxy)acetamido]-N-[6-(difluoromethoxy)pyridin-3-yl]bicyclo[1.1.1]pentane-1-carboxamide], the EC50 was < 0.25 µM. As for `O=C(COc1ccc(Cl)c(F)c1)NC12CCC(C(=O)NCc3ccc(C(F)(F)F)cn3)(CC1)C[C@H]2O` (single isomer, unassigned) [Compound 271], the figure is < 0.25 µM. Turning to `O=C(COc1ccc(Cl)c(F)c1)NC12CC(C(=O)NCCCc3ccccn3)(C1)C2` [Compound 254, 3-[2-(4-chloro-3-fluorophenoxy)acetamido]-N-[3-(pyridin-2-yl)propyl]bicyclo[1.1.1]pentane-1-carboxamide], the EC50 was 1 to 2 µM. On to `O=C(COc1ccc(Cl)c(F)c1)NC12CCC(C(=O)NCc3nc4ccccc4[nH]3)(CC1)CC2` [Compound 327, N-[(1H-benzimidazol-2-yl)methyl]-4-[2-(4-chloro-3-fluorophenoxy)acetamido]bicyclo[2.2.2]octane-1-carboxamide], for which the EC50 is < 0.25 µM. With `O=C(COc1ccc(Cl)c(Cl)c1)NC12CC(C(=O)Nc3ccccn3)(C1)C2` [Compound 289, 3-[2-(3,4-dichlorophenoxy)acetamido]-N-(pyridin-2-yl)bicyclo[1.1.1]pentane-1-carboxamide], the EC50 is < 0.25 µM. Take `NC(=O)c1ccc(CNC(=O)C23CC(NC(=O)COc4ccc(Cl)c(F)c4)(C2)C3)nc1` [Compound 339, 6-[({3-[2-(4-chloro-3-fluorophenoxy)acetamido]bicyclo[1.1.1]pentane-1-carbonyl}amino)methyl]pyridine-3-carboxamide]: the EC50 was > 2 µM. As for `O=C(COc1ccc(Cl)c(F)c1)NC12CC(C(=O)NCCc3c[nH]c4ccccc34)(C1)C2` [Compound 194, 3-[2-(4-chloro-3-fluorophenoxy)acetamido]-N-[2-(1H-indol-3-yl)ethyl]bicyclo[1.1.1]pentane-1-carboxamide], the EC50 was < 0.25 µM. As to `O=C(O)Cn1c(CNC(=O)C23CC(NC(=O)COc4ccc(Cl)c(F)c4)(C2)C3)nc2cc(F)c(F)cc21` [Compound 328, {2-[({3-[2-(4-chloro-3-fluorophenoxy)acetamido]bicyclo[1.1.1]pentane-1-carbonyl}amino)methyl]-5,6-difluoro-1H-benzimidazol-1-yl}acetic acid], the EC50 lay in the range of 1 to 2 µM. Turning to `O=C(COc1ccc(Cl)c(F)c1)NC12CCC(C(=O)NCc3cc(C(F)(F)F)ccn3)(CC1)CC2` [Compound 332, 4-[2-(4-chloro-3-fluorophenoxy)acetamido]-N-{[4-(trifluoromethyl)pyridin-2-yl]methyl}bicyclo[2.2.2]octane-1-carboxamide], the EC50 was < 0.25 µM. Take `O=C(COc1ccc(Cl)c(F)c1)NC12CC(C(=O)NCCCc3cccnc3)(C1)C2` [Compound 253, 3-[2-(4-chloro-3-fluorophenoxy)acetamido]-N-[3-(pyridin-3-yl)propyl]bicyclo[1.1.1]pentane-1-carboxamide]: the EC50 is 1 to 2 µM. For `O=C(COc1ccc(Cl)c(F)c1)NC12CCC(C(=O)NCc3ccccn3)(CC1)CC2` [Compound 259, 4-[2-(4-chloro-3-fluorophenoxy)acetamido]-N-[(pyridin-2-yl)methyl]bicyclo[2.2.2]octane-1-carboxamide] the value was 0.5 to 1 µM; for `O=C(COc1ccc(Cl)c(F)c1)NC12CCC(C(=O)NCc3ccc(C(F)(F)F)cn3)(CC1)C(=O)N2CCO` [Compound 329, 1-[2-(4-chloro-3-fluorophenoxy)acetamido]-2-(2-hydroxyethyl)-3-oxo-N-{[5-(trifluoromethyl)pyridin-2-yl]methyl}-2-azabicyclo[2.2.2]octane-4-carboxamide], < 0.25 µM. As to `CCOC(=O)c1csc(NC(=O)C23CC(NC(=O)COc4ccc(Cl)c(F)c4)(C2)C3)n1` [Compound 312, ethyl 2-({3-[2-(4-chloro-3-fluorophenoxy)acetamido]bicyclo[1.1.1]pentane-1-carbonyl}amino)-1,3-thiazole-4-carboxylate], the EC50 was 0.25 to 0.5 µM. Take `Cc1cnc(NC(=O)C23CC(NC(=O)COc4ccc(Cl)c(F)c4)(C2)C3)cn1` [Compound 304, 3-[2-(4-chloro-3-fluorophenoxy)acetamido]-N-(5-methylpyrazin-2-yl)bicyclo[1.1.1]pentane-1-carboxamide]: the EC50 was < 0.25 µM. `O=C(COc1ccc(Cl)c(F)c1)NC12CCC(C(=O)Nc3ccc(OC(F)(F)F)cc3)(CC1)OC2` [Compound 336, 4-[2-(4-chloro-3-fluorophenoxy)acetamido]-N-[4-(trifluoromethoxy)phenyl]-2-oxabicyclo[2.2.2]octane-1-carboxamide]: the EC50 is < 0.25 µM.

As for `COc1ccc(CNC(=O)C23CCC(NC(=O)COc4ccc(Cl)c(F)c4)(CC2)C(O)C3)nn1` (stereo not drawn) [Compound 321, 4-[2-(4-chloro-3-fluorophenoxy)acetamido]-3-hydroxy-N-[(6-methoxypyridazin-3-yl)methyl]bicyclo[2.2.2]octane-1-carboxamide], the EC50 was > 2 µM. Take `NC(=O)CN(Cc1ccc(Cl)c(F)c1)C(=O)C12CCC(NC(=O)COc3ccc(Cl)c(F)c3)(CC1)CC2` [Compound 320, N-(2-amino-2-oxoethyl)-4-[2-(4-chloro-3-fluorophenoxy)acetamido]-N-[(4-chloro-3-fluorophenyl)methyl]bicyclo[2.2.2]octane-1-carboxamide]: the EC50 is 0.5 to 1 µM. Consider `O=C(COc1ccc(Cl)c(F)c1)NC12CCC(C(=O)Nc3ccc(C(F)(F)F)cn3)(CC1)C(O)C2` (stereo not drawn) [Compound 316, 4-[2-(4-chloro-3-fluorophenoxy)acetamido]-2-hydroxy-N-[5-(trifluoromethyl)pyridin-2-yl]bicyclo[2.2.2]octane-1-carboxamide], for which the EC50 lay within 0.5 to 1 µM. Consider `O=C(COc1ccc(Cl)c(Cl)c1)NC12CCC(C(=O)NCc3ccc(C(F)(F)F)cc3)(CC1)C(O)C2` (stereo not drawn) [Compound 255, 4-[2-(3,4-dichlorophenoxy)acetamido]-2-hydroxy-N-{[4-(trifluoromethyl)phenyl]methyl}bicyclo[2.2.2]octane-1-carboxamide], for which the EC50 was < 0.25 µM. With `O=C(COc1ccc(Cl)c(F)c1)NC12CCC(C(=O)NCc3ccc(C(F)(F)F)cn3)(CC1)CC2` [Compound 261, 4-[2-(4-chloro-3-fluorophenoxy)acetamido]-N-{[5-(trifluoromethyl)pyridin-2-yl]methyl}bicyclo[2.2.2]octane-1-carboxamide], the EC50 was < 0.25 µM. Take `CC(O)(CNC(=O)C12CC(NC(=O)COc3ccc(Cl)c(F)c3)(C1)C2)c1ccc(Cl)cc1` (stereo not drawn) [Compound 317, 3-[2-(4-chloro-3-fluorophenoxy)acetamido]-N-[2-(4-chlorophenyl)-2-hydroxypropyl]bicyclo[1.1.1]pentane-1-carboxamide]: the EC50 is 1 to 2 µM. As for `O=C(COc1ccc(Cl)c(F)c1)NC12CCC(C(=O)NCc3ccc(Cl)cn3)(CC1)OC2` [Compound 342, 4-[2-(4-chloro-3-fluorophenoxy)acetamido]-N-[(5-chloropyridin-2-yl)methyl]-2-oxabicyclo[2.2.2]octane-1-carboxamide], the figure is < 0.25 µM. With `Cc1ccc(NC(=O)C23CC(NC(=O)COc4ccc(Cl)c(F)c4)(C2)C3)nc1` [Compound 299, 3-[2-(4-chloro-3-fluorophenoxy)acetamido]-N-(5-methylpyridin-2-yl)bicyclo[1.1.1]pentane-1-carboxamide], the EC50 is < 0.25 µM. As to `O=C(COc1ccc(Cl)c(Cl)c1)NC12CC(C(=O)Nc3ccc(OC(F)(F)F)cn3)(C1)C2` [Compound 291, 3-[2-(3,4-dichlorophenoxy)acetamido]-N-[5-(trifluoromethoxy)pyridin-2-yl]bicyclo[1.1.1]pentane-1-carboxamide], the EC50 is < 0.25 µM. For `O=C(COc1ccc(Cl)c(F)c1)NC12CC(C(=O)Nc3ccc(Cl)cc3)(C1)C2` [Compound 283, 3-[2-(4-chloro-3-fluorophenoxy)acetamido]-N-(4-chlorophenyl)bicyclo[1.1.1]pentane-1-carboxamide] the value was < 0.25 µM; for `O=C(COc1ccc(Cl)c(F)c1)NC12CC(C(=O)Nc3ccccc3)(C1)C2` [Compound 285, 3-[2-(4-chloro-3-fluorophenoxy)acetamido]-N-phenylbicyclo[1.1.1]pentane-1-carboxamide], < 0.25 µM; for `O=C(COc1ccc(Cl)c(F)c1)NC12CCC(C(=O)NCc3ccc(C(F)(F)F)cn3)(CC1)C(=O)N2` [Compound 333, 1-[2-(4-chloro-3-fluorophenoxy)acetamido]-3-oxo-N-{[5-(trifluoromethyl)pyridin-2-yl]methyl}-2-azabicyclo[2.2.2]octane-4-carboxamide], < 0.25 µM. Regarding `O=C(COc1ccc(Cl)c(Cl)c1)NC12CCC(C(=O)NCc3ccc(C(F)(F)F)cc3)(CC1)[C@@H](O)C2` (single isomer, unassigned) [Compound 264], the EC50 was < 0.25 µM. As to `COc1cnc(NC(=O)C23CC(NC(=O)COc4ccc(Cl)c(F)c4)(C2)C3)nc1` [Compound 302, 3-[2-(4-chloro-3-fluorophenoxy)acetamido]-N-(5-methoxypyrimidin-2-yl)bicyclo[1.1.1]pentane-1-carboxamide], the EC50 was 0.25 to 0.5 µM.
